Assay results published in patent US8299077B2 (Roche Palo Alto LLC, priority 2009, dated 2012).

Tested on: B cell receptor-mediated activation of B cells in human blood (CD69 expression)
Assay: Inhibition of B cell activation in whole blood measured by CD69 expression
Type: cell-based
Settings: anti-IgM stimulation, 20 h, 50% decrease of CD69-positive cells that are also CD20-positive
Experimental: Inhibition of B Cell Activation in Whole Blood Measured by CD69 Expression
A procedure to test the ability of Btk inhibitors to suppress B cell receptor-mediated activation of B cells in human blood is as follows:
Human whole blood (HWB) is obtained from healthy volunteers, with the following restrictions: 24 hr drug-free, non-smokers. Blood is collected by venipuncture into Vacutainer tubes anticoagulated with sodium heparin. Test compounds are diluted to ten times the desired starting drug concentration in PBS (20×), followed by three-fold serial dilutions in 10% DMSO in PBS to produce a nine point dose-response curve. 5.5 μl of each compound dilution is added in duplicate to a 2 ml 96-well V bottom plate (Analytical Sales and Services, #59623-23); 5.5 μl of 10% DMSO in PBS is added to control and no-stimulus wells. HWB (100 μl) is added to each well, and after mixing the plates are incubated at 37 C, 5% CO2, 100% humidity for 30 minutes. Goat F(ab′)2 anti-human IgM (Southern Biotech, #2022-14) (10 μl of a 500 μg/ml solution, 50 μg/ml final concentration) is added to each well (except the no-stimulus wells) with mixing and the plates are incubated for an additional 20 hours.
At the end of the 20 hour incubation, samples are incubated with florescent-probe-labeled anti-bodies (15 μl PE Mouse anti-Human CD20, BD Pharmingen, #555623, and/or 20 ul APC Mouse anti-Human CD69, BD Pharmingen #555533) for 30 minutes, at 37 C, 5% CO2, 100% humidity. Included are induced control, unstained and single stains for compensation adjustments and initial voltage settings. Samples are then lysed with 1 ml of 1× Pharmingen Lyse Buffer (BD Pharmingen #555899), and plates are centrifuged at 1800 rpm for 5 minutes. Supernatants are removed via suction and the remaining pellets are lysed again with another 1 ml of 1× Pharmingen Lyse Buffer, and plates are spun down as before. Supernatants are aspirated and remaining pellets are washed in FACs buffer (PBS+1% FBS). After a final spin, the supernantants are removed and pellets are resuspended in 180 μl of FACs buffer. Samples are transferred to a 96 well plate suitable to be run on the HTS 96 well system on the BD LSR II flow cytometer.
Using appropriate excitation and emission wavelengths for the fluorophores used, data are acquired and percent positive cell values are obtained using Cell Quest Software. Results are initially analyzed by FACS analysis software (Flow Jo). […] The IC50 values are calculated using XLfit software version 3, equation 201.

Compound: CCNC(C)(C)c1ccc(Nc2cc(-c3cccc(-n4ncc5cc(C(C)(C)C)cc(F)c5c4=O)c3CO)cn(C)c2=O)nc1 [Example I-47, 6-tert-Butyl-2-(3-{5-[5-(1-ethylamino-1-methyl-ethyl)-pyridin-2-ylamino]-1-methyl-6-oxo-1,6-dihydro-pyridin-3-yl}-2-hydroxymethyl-phenyl)-8-fluoro-2H-phthalazin-1-one]
- IC50: 6 nM

Compound: CCNCc1ccc(Nc2cc(-c3cccc(-n4ccc5cc(C6CC6)cc(F)c5c4=O)c3CO)cn(C)c2=O)nc1 [Example I-77, 6-Cyclopropyl-2-{3-[5-(5-ethylaminomethyl-pyridin-2-ylamino)-1-methyl-6-oxo-1,6-dihydro-pyridin-3-yl]-2-hydroxymethyl-phenyl}-8-fluoro-2H-isoquinolin-1-one]
- IC50: 20 nM

Compound: CC(O)c1ccc(Nc2cc(-c3cccc(-n4ncc5cc(C(C)(C)C)cc(F)c5c4=O)c3CO)cn(C)c2=O)nc1 (stereo not drawn) [Example I-36, 6-tert-Butyl-8-fluoro-2-(3-{5-[5-(1-hydroxy-ethyl)-pyridin-2-ylamino]-1-methyl-6-oxo-1,6-dihydro-pyridin-3-yl}-2-hydroxymethyl-phenyl)-2H-phthalazin-1-one]
- IC50: 59 nM

Compound: COCCNCc1ccc(Nc2cc(-c3cccc(-n4ncc5cc(C(C)(C)C)cc(F)c5c4=O)c3CO)cn(C)c2=O)nc1 [Example I-39, 6-tert-Butyl-8-fluoro-2-[2-hydroxymethyl-3-(5-{5-[(2-methoxy-ethylamino)-methyl]-pyridin-2-ylamino}-1-methyl-6-oxo-1,6-dihydro-pyridin-3-yl)-phenyl]-2H-phthalazin-1-one]
- IC50: 8 nM

Compound: Cn1cc(-c2cccc(-n3ccc4cc(C5CC5)cc(F)c4c3=O)c2CO)cc(Nc2ccc(OCCO)cn2)c1=O [Example I-79, 6-Cyclopropyl-8-fluoro-2-(3-{5-[5-(2-hydroxy-ethoxy)-pyridin-2-ylamino]-1-methyl-6-oxo-1,6-dihydro-pyridin-3-yl}-2-hydroxymethyl-phenyl)-2H-isoquinolin-1-one]
- IC50: 93 nM

Compound: Cn1cc(-c2cccc(-n3ccc4cc(C5CC5)cc(F)c4c3=O)c2CO)cc(Nc2ccc(N3CCC(C)(O)CC3)cn2)c1=O [Example I-57, 6-Cyclopropyl-8-fluoro-2-{2-hydroxymethyl-3-[5-(4-hydroxy-4-methyl-3,4,5,6-tetrahydro-2H-[1,3′]bipyridinyl-6′-ylamino)-1-methyl-6-oxo-1,6-dihydro-pyridin-3-yl]-phenyl}-2H-isoquinolin-1-one]
- IC50: 18 nM

Compound: Cn1cc(-c2cccc(-n3ncc4cc(C(C)(C)C)cc(F)c4c3=O)c2CO)cc(NC2=NCCCO2)c1=O [Example I-44, 6-tert-Butyl-2-{3-[5-(5,6-dihydro-4H-[1,3]oxazin-2-ylamino)-1-methyl-6-oxo-1,6-dihydro-pyridin-3-yl]-2-hydroxymethyl-phenyl}-8-fluoro-2H-phthalazin-1-one]
- IC50: 1730 nM

Compound: CN1CCN(c2ccc(Nc3cc(-c4cccc(-n5ccc6cc(C(C)(C)O)cc(F)c6c5=O)c4CO)cn(C)c3=O)nc2)CC1 [Example I-59, 8-Fluoro-6-(1-hydroxy-1-methyl-ethyl)-2-(2-hydroxymethyl-3-{1-methyl-5-[5-(4-methyl-piperazin-1-yl)-pyridin-2-ylamino]-6-oxo-1,6-dihydro-pyridin-3-yl}-phenyl)-2H-isoquinolin-1-one]
- IC50: 3 nM

Compound: CCn1ccc(Nc2cc(-c3cccc(-n4ncc5cc(C(C)(C)C)cc(F)c5c4=O)c3CO)cn(C)c2=O)nc1=O [Example I-37, 6-tert-Butyl-2-{3-[5-(1-ethyl-2-oxo-1,2-dihydro-pyrimidin-4-ylamino)-1-methyl-6-oxo-1,6-dihydro-pyridin-3-yl]-2-hydroxymethyl-phenyl}-8-fluoro-2H-phthalazin-1-one]
- IC50: 219 nM

Compound: Cn1cc(-c2cccc(-n3ncc4cc(C(C)(C)C)cc(F)c4c3=O)c2CO)cc(Nc2ccc(CN3CCC(N)C3)cn2)c1=O (stereo not drawn) [Example I-86, 2-(3-{5-[5-(3-Amino-pyrrolidin-1-ylmethyl)-pyridin-2-ylamino]-1-methyl-6-oxo-1,6-dihydro-pyridin-3-yl}-2-hydroxymethyl-phenyl)-6-tert-butyl-8-fluoro-2H-phthalazin-1-one]
- IC50: 101 nM

Compound: Cn1cc(-c2cccc(-n3ccc4cc(C5CC5)cc(Cl)c4c3=O)c2CO)cc(Nc2ccc(C(=O)N3CCOCC3)cn2)c1=O [Example I-53, 8-Chloro-6-cyclopropyl-2-(2-hydroxymethyl-3-{1-methyl-5-[5-(morpholine-4-carbonyl)-pyridin-2-ylamino]-6-oxo-1,6-dihydro-pyridin-3-yl}-phenyl)-2H-isoquinolin-1-one]
- IC50: 609 nM

Compound: CN1CCN(c2ccc(Nc3cc(-c4cccc(-n5ccc6cc(C7CC7)cc(F)c6c5=O)c4CO)cn(C)c3=O)nc2)CC1 [Example I-54, 6-Cyclopropyl-8-fluoro-2-(2-hydroxymethyl-3-{1-methyl-5-[5-(4-methyl-piperazin-1-yl)-pyridin-2-ylamino]-6-oxo-1,6-dihydro-pyridin-3-yl}-phenyl)-2H-isoquinolin-1-one]
- IC50: 14 nM

Compound: Cn1cc(-c2cccc(-n3ncc4cc(C(C)(C)C)cc(F)c4c3=O)c2CO)cc(Nc2ccc(N3C[C@H]4CC[C@@H](C3)N4)cn2)c1=O [Example I-87, 6-tert-Butyl-2-(3-{5-[(1S,5R)-5-(3,8-diaza-bicyclo[3.2.1]oct-3-yl)-pyridin-2-ylamino]-1-methyl-6-oxo-1,6-dihydro-pyridin-3-yl}-2-hydroxymethyl-phenyl)-8-fluoro-2H-phthalazin-1-one]
- IC50: 24 nM

Compound: Cc1c(-c2cc(Nc3ccc(N4CCN(C)CC4)cn3)c(=O)n(C)c2)cccc1-n1ncc2cc(C(C)(C)C)cc(F)c2c1=O [Example I-28, 6-tert-Butyl-8-fluoro-2-(2-methyl-3-{1-methyl-5-[5-(4-methyl-piperazin-1-yl)-pyridin-2-ylamino]-6-oxo-1,6-dihydro-pyridin-3-yl}-phenyl)-2H-phthalazin-1-one]
- IC50: 181 nM

Compound: CCC(O)(CC)c1cc(F)c2c(=O)n(-c3cccc(-c4cc(Nc5ccc(N6CCC(C)(O)CC6)cn5)c(=O)n(C)c4)c3CO)ccc2c1 [Example I-64, 6-(1-Ethyl-1-hydroxy-propyl)-8-fluoro-2-{2-hydroxymethyl-3-[5-(4-hydroxy-4-methyl-3,4,5,6-tetrahydro-2H-[1,3′]bipyridinyl-6′-ylamino)-1-methyl-6-oxo-1,6-dihydro-pyridin-3-yl]-phenyl}-2H-isoquinolin-1-one]
- IC50: 27 nM

Compound: Cn1cc(-c2cccc(-n3ncc4cc(C(C)(C)C)cc(F)c4c3=O)c2CO)cc(Nc2ccc(OCCO)cn2)c1=O [Example I-19]
- IC50: 14 nM

Compound: CNC(=O)C(C)(C)c1ccc(Nc2cc(-c3cccc(-n4ncc5cc(C(C)(C)C)cc(F)c5c4=O)c3CO)cn(C)c2=O)nc1 [Example I-32, 2-(6-{5-[3-(6-tert-Butyl-8-fluoro-1-oxo-1H-phthalazin-2-yl)-2-hydroxymethyl-phenyl]-1-methyl-2-oxo-1,2-dihydro-pyridin-3-ylamino}-pyridin-3-yl)-N-methyl-isobutyramide]
- IC50: 34 nM

Compound: CC(=O)NC(C)(C)c1ccc(Nc2cc(-c3cccc(-n4ncc5cc(C(C)(C)C)cc(F)c5c4=O)c3CO)cn(C)c2=O)nc1 [Example I-48, N-[1-(6-{5-[3-(6-tert-Butyl-8-fluoro-1-oxo-1H-phthalazin-2-yl)-2-hydroxymethyl-phenyl]-1-methyl-2-oxo-1,2-dihydro-pyridin-3-ylamino}-pyridin-3-yl)-1-methyl-ethyl]-acetamide]
- IC50: 47 nM

Compound: COCCNCc1ccc(Nc2cc(-c3cccc(-n4ccc5cc(C6CC6)cc(F)c5c4=O)c3CO)cn(C)c2=O)nc1 [Example I-75, 6-Cyclopropyl-8-fluoro-2-[2-hydroxymethyl-3-(5-{5-[(2-methoxy-ethylamino)-methyl]-pyridin-2-ylamino}-1-methyl-6-oxo-1,6-dihydro-pyridin-3-yl)-phenyl]-2H-isoquinolin-1-one]
- IC50: 37 nM

Compound: Cn1cc(-c2cccc(-n3ncc4cc(C(C)(C)C)cc(F)c4c3=O)c2CO)nc(Nc2cnn(CC(F)F)c2)c1=O [Example I-84, 6-tert-Butyl-2-(3-{6-[1-(2,2-difluoro-ethyl)-1H-pyrazol-4-ylamino]-4-methyl-5-oxo-4,5-dihydro-pyrazin-2-yl}-2-hydroxymethyl-phenyl)-8-fluoro-2H-phthalazin-1-one]
- IC50: 20 nM

Compound: Cn1cc(-c2cccc(-n3ccc4cc(C(C)(C)C#N)cc(F)c4c3=O)c2CO)cc(Nc2ccc(OCCO)cn2)c1=O [Example I-65, 2-[8-Fluoro-2-(3-{5-[5-(2-hydroxy-ethoxy)-pyridin-2-ylamino]-1-methyl-6-oxo-1,6-dihydro-pyridin-3-yl}-2-hydroxymethyl-phenyl)-1-oxo-1,2-dihydro-isoquinolin-6-yl]-2-methyl-propionitrile]
- IC50: 19 nM
